Laboratory results from PubChem BioAssay (NCI).
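Five compound concentrations were applied to cells in 96-well plates for 48 hours; endpoints were derived by simple linear interpolation of the resulting dose-response curve. Definition used: TGI = concentration required for complete inhibition of growth.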 Where a SMILES comes first, the peptide text is derived from it. The star is where a group is joined. Boc = CC(C)(C)OC(=O)*; nBu = CCCC*

Assays:
Assay in all cases: DTP human tumour cell line panel, 48 h
BT-549 breast = test system: BT-549 breast
K-562 leukemia = test system: K-562 leukemia
UO-31 renal = test system: UO-31 renal
KM12 colon = test system: KM12 colon
A549 NSCLC = test system: A549 NSCLC
MALME-3M melanoma = test system: MALME-3M melanoma
HT29 colon = test system: HT29 colon
T-47D breast = test system: T-47D breast
COLO 205 colon = test system: COLO 205 colon
SK-OV-3 ovarian = test system: SK-OV-3 ovarian
SF-268 CNS = test system: SF-268 CNS

| Structure (SMILES) | TGI (BT-549 breast) [µM] | TGI (K-562 leukemia) [µM] | TGI (UO-31 renal) [µM] | TGI (KM12 colon) [µM] | TGI (A549 NSCLC) [µM] | TGI (MALME-3M melanoma) [µM] | TGI (HT29 colon) [µM] | TGI (T-47D breast) [µM] | TGI (COLO 205 colon) [µM] | TGI (SK-OV-3 ovarian) [µM] | TGI (SF-268 CNS) [µM] |
| --- | --- | --- | --- | --- | --- | --- | --- | --- | --- | --- | --- |
| Oc1ccccc1C=Nc1ccc(-c2nc3ccccc3s2)cc1 | > 100 | > 100 | > 100 | > 100 | > 100 | > 100 | > 100 | 84.8 | 40.9 | > 100 | > 100 |
| CC1(C)OC[C@@H]([C@@]2(COC(c3ccccc3)(c3ccccc3)c3ccccc3)CC=CC(=O)O2)O1 | 74.4 | > 100 | > 100 | > 100 | > 100 | > 100 | > 100 | > 100 | 50.6 | > 100 | > 100 |
| CCCCCCCCCCCCCCCc1nc(=S)[nH][nH]1 | – | > 100 | > 100 | > 100 | – | > 100 | > 100 | – | – | > 100 | > 100 |
| O=C(Nc1ccccc1)Oc1ccc(C(=S)Nc2ccc(Br)cc2)cc1 | 36.6 | > 100 | – | 32.4 | – | 65.1 | 34.7 | 75.1 | 36.6 | > 100 | > 100 |
| CC1=NN(c2nc(N)nc(/C(C#N)=C\c3ccc(-c4ccc([N+](=O)[O-])cc4)o3)n2)C(C)(C)C1 | > 100 | > 100 | > 100 | > 100 | > 100 | > 100 | > 100 | > 100 | > 100 | > 100 | > 100 |
| COC(=O)/C=C\C(C#N)(C#N)N=Cc1ccc(OC)cc1 | 10.4 | > 58.6 | 5.96 | 32.6 | 38.3 | 4.01 | 22.2 | 4.53 | 3.47 | 31 | 11.5 |
| Cc1cc(-c2nc3c(F)cccc3s2)ccc1N | > 100 | > 100 | > 100 | > 100 | > 100 | > 100 | > 100 | – | > 100 | > 100 | > 100 |
| COc1cc(C2S/C(=C/c3ccccc3)C(=O)N2c2cccc(NC(C)=O)c2)cc(OC)c1OC (stereo not given) | > 100 | > 100 | > 100 | 82 | > 100 | 98.3 | 59.7 | 68.6 | 86.6 | > 100 | > 100 |
| O=CNc1ccccc1OCCOc1ccccc1NC=O | > 100 | > 100 | > 100 | > 100 | > 100 | > 100 | > 100 | > 100 | > 100 | > 100 | > 100 |
| O=P(NCCCO)(OCc1ccccc1)N(CCCl)CCCl (stereo not given) | – | > 100 | > 100 | > 100 | > 100 | > 100 | > 100 | – | > 100 | > 100 | > 100 |
| COc1ccccc1-c1c(C#N)c(N)[nH]c(=S)c1C#N | > 100 | > 100 | > 100 | > 100 | > 100 | > 100 | > 100 | – | > 100 | – | > 100 |
| CC(Oc1ccc(Cl)cc1Cl)C(=O)NN1C(=O)CC(=O)N(c2ccccc2)C1=S (stereo not given) | > 100 | > 100 | > 100 | > 100 | > 100 | > 100 | > 100 | > 100 | > 100 | > 100 | > 100 |
| CC(C)CC(N)C(=O)NC(C(=O)NC(CCCNC(=N)N)C(=O)NC(CS)C(=O)NC1CSCC(C(=O)NC(Cc2ccccc2)C(=O)NC(C(=O)NC(CCCNC(=N)N)C(=O)O)C(C)C)NC(=O)C2CCCN2C(=O)C(CCCCN)NC(=O)C2CCCN2C(=O)C2CCCN2C(=O)C(Cc2ccc(O)cc2)NC(=O)C(CO)NC(=O)C(CCCCN)NC(=O)C(C(C)O)NC(=O)C(Cc2c[nH]c3ccccc23)NC1=O)C(C)C (stereo not given) | > 25 | > 25 | > 25 | > 25 | > 25 | > 25 | > 25 | > 25 | > 25 | > 25 | > 25 |
| COc1ccc(C2C3CCc4ccccc4C3=NN2S(=O)(=O)c2cccc(C(=O)O)c2OC)cc1 (stereo not given) | > 100 | > 100 | > 100 | > 100 | > 100 | > 100 | > 100 | > 100 | 5.6 | 17.7 | > 100 |
| Nc1nc(SCC(=O)c2ccc(Br)cc2)c2[nH]cnc2n1 | > 100 | > 100 | > 100 | > 100 | > 100 | > 100 | > 100 | 98.7 | 46.8 | > 100 | > 100 |
| COc1ccc(CCn2cncn2)cc1 | – | > 100 | > 100 | > 100 | > 100 | – | > 100 | – | > 100 | > 100 | > 100 |
| COc1ccccc1N/C(SCc1ccccc1)=C(/C(Cl)=C(Cl)Cl)[N+](=O)[O-] | 32.9 | 57.9 | 34.6 | > 100 | > 100 | 38.7 | 42.4 | 65.6 | 33.7 | > 100 | 39 |
| COc1ccc2nc3cc(Cl)ccc3c(NCCCN3CCN(CCCNc4ccc5nnn6c7ccccc7c(=O)c4c56)CC3)c2c1 | > 14.8 | > 25 | > 25 | > 25 | > 25 | – | > 25 | > 25 | > 25 | > 25 | > 25 |
| Cc1ccc(-c2cn3c(nc4ccccc43)c(/C=C/c3ccco3)n2)cc1 | > 100 | > 100 | > 100 | > 100 | > 100 | > 100 | > 100 | > 100 | > 100 | > 100 | > 100 |
| CCCCOc1ccc(CC(NC(=O)OC(C)(C)C)C(=O)NC(C)C(=O)NC(Cc2ccccc2)C(=O)NCC(N)=O)cc1 (stereo not given) (Boc-Y(nBu)AFG-NH2; configuration not given here) | > 100 | > 100 | > 100 | > 100 | > 100 | > 100 | > 100 | > 100 | > 100 | > 100 | > 100 |
